Our source for the melting point values is patent US20100130737A1, “Regulating Agent of GPR34 Receptor Function” (TAKEDA PHARMACEUTICAL COMPANY LIMITED, priority 2005, published 2010).

Compound `O=C(O)CNC(=O)C1(NC(=O)Cc2ccc(OCc3ccc(F)cc3)cc2)Cc2ccc(-c3ccc(Cl)cc3)cc2C1` (centres unmarked) [Example B149, N-({5-(4-Chlorophenyl)-2-[({4-[(4-fluorobenzyl)oxy]phenyl}acetyl)amino]-2,3-dihydro-1H-inden-2-yl}carbonyl)glycine] gave a melting point of 209 to 210 °C.

`O=C(O)CCNC(=O)C1(NC(=O)Cc2ccc(OCc3ccc(F)cc3)cc2)Cc2ccc(-c3ccc(Cl)cc3)cc2C1` (centres unmarked) [Example B150, N-({5-(4-Chlorophenyl)-2-[({4-[(4-fluorobenzyl)oxy]phenyl}acetyl)amino]-2,3-dihydro-1H-inden-2-yl)carbonyl)-O-alanine]: the melting point turned out to be 214 °C.

The compound `O=C(Cc1ccc(OCc2cccs2)cc1)NC1(C(=O)O)Cc2ccc(-c3ccc(Cl)cc3)cc2C1` (centres unmarked) [Example B151, 5-(4-Chlorophenyl)-2-({[4-(2-thienylmethoxy)phenyl]acetyl}amino)indan-2-carboxylic acid] gave a melting point of 201 °C. Next, `Cc1nc(COc2ccc(CC(=O)NC3(C(=O)O)Cc4ccc(-c5ccc(Cl)cc5)cc4C3)cc2)cs1` (centres unmarked) [Example B152]: 209 to 210 °C; `O=C(Cc1ccc(OCc2c(Cl)cccc2Cl)cc1)NC1(C(=O)O)Cc2ccc(-c3ccc(Cl)cc3)cc2C1` (centres unmarked) [Example B153]: 204 to 205 °C; `O=C(Cc1ccc(OC2CCc3ccccc32)cc1)NC1(C(=O)O)Cc2ccc(-c3ccc(Cl)cc3)cc2C1` (centres unmarked) [Example B154, 5-(4-Chlorophenyl)-2-({[4-(2,3-dihydro-1H-inden-1-yloxy)phenyl]acetyl)amino)indan-2-carboxylic acid]: 194 to 195 °C.

`O=C(Cc1ccc(OC2Cc3ccccc3C2)cc1)NC1(C(=O)O)Cc2ccc(-c3ccc(Cl)cc3)cc2C1` (centres unmarked) [Example B155, 5-(4-Chlorophenyl)-2-({[4-(2,3-dihydro-1H-inden-2-yloxy)phenyl]acetyl}amino)indan-2-carboxylic acid]: the melting point fell in the range of 233 to 234 °C. Next, `Cc1nc(COc2ccc(CC(=O)NC3(C(=O)O)Cc4ccc(-c5ccc(Cl)cc5)cc4C3)cc2)co1` (centres unmarked) [Example B156, 5-(4-Chlorophenyl)-2-[({4-[(2-methyl-1,3-oxazol-4-yl)methoxy]phenyl}acetyl)amino]indan-2-carboxylic acid]: 187 to 189 °C. Next, `Cc1nc2ccccc2n1Cc1ccc(C(=O)NC2(C(=O)O)Cc3ccc(-c4ccc(Cl)cc4)cc3C2)cc1` (centres unmarked) [Example B157, 5-(4-Chlorophenyl)-2-({4-[(2-methyl-1H-benzimidazol-1-yl)methyl]benzoyl}amino)indan-2-carboxylic acid]: 258 to 259 °C; `O=C(Cc1ccc(Oc2nc3ccccc3s2)cc1)NC1(C(=O)O)Cc2ccc(-c3ccc(Cl)cc3)cc2C1` (centres unmarked) [Example B158, 2-({[4-(1,3-Benzothiazol-2-yloxy)phenyl]acetyl}amino)-5-(4-chlorophenyl)indan-2-carboxylic acid]: 241 to 243 °C; `Cc1cccc(C)c1-c1ccc2c(c1)CC(NC(=O)Cc1ccc(OCc3ccc(F)cc3)cc1)(C(=O)O)C2` (centres unmarked) [Example B160, 5-(2,6-Dimethylphenyl)-2-[({4-[(4-fluorobenzyl)oxy]phenyl}acetyl)amino]indan-2-carboxylic acid]: 210 to 212 °C. Next, `O=C(Cc1ccc(Oc2ccc(F)cc2)cc1)NC1(C(=O)O)Cc2ccc(-c3ccc(Cl)cc3)cc2C1` (centres unmarked) [Example B161, 5-(4-Chlorophenyl)-2-({[4-(4-fluorophenoxy)phenyl]acetyl}amino)indan-2-carboxylic acid]: 232 to 234 °C. The compound `O=C(Cc1ccc(NCc2ccc(F)cc2)cc1)NC1(C(=O)O)Cc2ccc(-c3ccc(Cl)cc3)cc2C1` (centres unmarked) [Example B162, 5-(4-Chlorophenyl)-2-[({4-[(4-fluorobenzyl)amino]phenyl}acetyl)amino]indan-2-carboxylic acid] returned a melting point of 188 to 190 °C. Next, `O=C(Cc1ccc(OCc2ccncc2)cc1)NC1(C(=O)O)Cc2ccc(-c3ccc(Cl)cc3)cc2C1` (centres unmarked) [Example B163, 5-(4-Chlorophenyl)-2-({[4-(pyridin-4-ylmethoxy)phenyl]acetyl}amino)indan-2-carboxylic acid]: 128 °C; `O=C(Cc1ccc(Oc2ccsc2)cc1)NC1(C(=O)O)Cc2ccc(-c3ccc(Cl)cc3)cc2C1` (centres unmarked) [Example B164, 5-(4-Chlorophenyl)-2-({[4-(3-thienyloxy)phenyl]acetyl}amino)indan-2-carboxylic acid]: 226 to 228 °C. `Cc1noc(C)c1COc1ccc(CC(=O)NC2(C(=O)O)Cc3ccc(-c4ccc(Cl)cc4)cc3C2)cc1` (centres unmarked) [Example B165] displayed a melting point of 200 to 201 °C. In turn, `O=C(CC1CCN(C(=O)c2ccc(F)cc2)CC1)NC1(C(=O)O)Cc2ccc(-c3ccc(Cl)cc3)cc2C1` (centres unmarked) [Example B166, 5-(4-Chlorophenyl)-2-({[1-(4-fluorobenzoyl)piperidin-4-yl]acetyl}amino)indan-2-carboxylic acid] registered a melting point of 242 °C. Next, `O=C(CC1CCN(C(=O)Cc2ccc(F)cc2)CC1)NC1(C(=O)O)Cc2ccc(-c3ccc(Cl)cc3)cc2C1` (centres unmarked) [Example B167, 5-(4-Chlorophenyl)-2-[({1-[(4-fluorophenyl)acetyl]piperidin-4-yl}acetyl)amino]indan-2-carboxylic acid]: 196 °C; `O=C(CCCSc1nc2ccccc2s1)NC1(C(=O)O)Cc2ccc(-c3ccc(Cl)cc3)cc2C1` (centres unmarked) [Example B168, 2-{[4-(1,3-Benzothiazol-2-ylthio)-butanoyl]amino}-5-(4-chlorophenyl)indan-2-carboxylic acid]: 210 to 212 °C; `O=C(CSc1nc2ccccc2o1)NC1(C(=O)O)Cc2ccc(-c3ccc(Cl)cc3)cc2C1` (centres unmarked) [Example B169, 2-{[(1,3-Benzoxazol-2-ylthio)acetyl]amino}-5-(4-chlorophenyl)indan-2-carboxylic acid]: 227 to 230 °C. Next, `O=C(CCCSc1ccc2ccccc2c1)NC1(C(=O)O)Cc2ccc(-c3ccc(Cl)cc3)cc2C1` (centres unmarked) [Example B170, 5-(4-Chlorophenyl)-2-{[4-(2-naphthylthio)butanoyl]amino}indan-2-carboxylic acid]: 210 to 212 °C. Next, `O=C(CSc1ccc2ccccc2c1)NC1(C(=O)O)Cc2ccc(-c3ccc(Cl)cc3)cc2C1` (centres unmarked) [Example B171, 5-(4-Chlorophenyl)-2-{[(2-naphthylthio)acetyl]amino)indan-2-carboxylic acid]: 223 to 225 °C. For `O=C(CCSc1ccc2ccccc2c1)NC1(C(=O)O)Cc2ccc(-c3ccc(Cl)cc3)cc2C1` (centres unmarked) [Example B172, 5-(4-Chlorophenyl)-2-{[3-(2-naphthylthio)propanoyl]amino}indan-2-carboxylic acid], the melting point came to 215 °C. `COc1ccc(CC(=O)NC2(C(=O)O)Cc3ccc(-c4ccc(Cl)cc4)cc3C2)cc1` (centres unmarked) [Example B173, 5-(4-Chlorophenyl)-2-{[(4-methoxyphenyl)acetyl]amino)indan-2-carboxylic acid] yielded a melting point of 231 to 233 °C. `O=C(Cc1c[nH]c2ccccc12)NC1(C(=O)O)Cc2ccc(-c3ccc(Cl)cc3)cc2C1` (centres unmarked) [Example B176]: the melting point lay in the range of 209 to 211 °C. Next, `O=C(Cc1ccc(-c2ccccc2)cc1)NC1(C(=O)O)Cc2ccc(-c3ccc(Cl)cc3)cc2C1` (centres unmarked) [Example B177, 2-[(Biphenyl-4-ylacetyl)amino]-5-(4-chlorophenyl)indan-2-carboxylic acid]: 240 to 243 °C; `O=C(Cc1ccccn1)NC1(C(=O)O)Cc2ccc(-c3ccc(Cl)cc3)cc2C1` (centres unmarked) [Example B178, 5-(4-Chlorophenyl)-2-[(pyridin-2-ylacetyl)amino]indan-2-carboxylic acid]: 189 °C. Next, `O=C(NC1(C(=O)O)Cc2ccc(-c3ccc(Cl)cc3)cc2C1)[C@@H](O)c1ccccc1` (stereo partly drawn) [Example B179, 5-(4-Chlorophenyl)-2-{[(2S)-2-hydroxy-2-phenylacetyl]amino}indan-2-carboxylic acid]: 156 °C; `O=C(Nc1ccc(F)cc1)NC1(C(=O)O)Cc2ccc(-c3ccc(Cl)cc3)cc2C1` (centres unmarked) [Example B180, 5-(4-Chlorophenyl)-2-({[(4-fluorophenyl)amino]carbonyl}amino)indan-2-carboxylic acid]: 177 °C. Next, `O=C(Cc1cccc(OCc2ccccc2)c1)NC1(C(=O)O)Cc2ccc(-c3ccc(Cl)cc3)cc2C1` (centres unmarked) [Example B181, 2-({[3-(Benzyloxy)phenyl]acetyl}amino)-5-(4-chlorophenyl)indan-2-carboxylic acid]: 207 °C; `O=C(Cc1ccc(Oc2ccccc2)cc1)NC1(C(=O)O)Cc2ccc(-c3ccc(Cl)cc3)cc2C1` (centres unmarked) [Example B183, 5-(4-Chlorophenyl)-2-{[(4-phenoxyphenyl)acetyl]amino)indan-2-carboxylic acid]: 227 to 228 °C. `O=C(Cc1ccc(OCc2ccc(F)cc2)cc1)NC1(C(=O)O)Cc2ccc(-c3ccccc3Cl)cc2C1` (centres unmarked) [Example B184, 5-(2-Chlorophenyl)-2-[({4-[(4-fluorobenzyl)oxy]phenyl}acetyl}amino}indan-2-carboxylic acid] yielded a melting point of 213 to 215 °C. Next, `O=C(Cc1ccc(OCc2ccc(F)cc2)cc1)NC1(C(=O)O)Cc2ccc(-c3cccc(Cl)c3)cc2C1` (centres unmarked) [Example B185, 5-(3-Chlorophenyl)-2-[({4-[(4-fluorobenzyl)oxy]phenyl}acetyl)amino]indan-2-carboxylic acid]: 173 to 174 °C. Next, `O=C(Cc1ccc(OCc2ccc(F)cc2)cc1)NC1(C(=O)O)Cc2ccc(-c3ccc(Cl)s3)cc2C1` (centres unmarked) [Example B186, 5-(5-Chloro-2-thienyl)-2-[({4-[(4-fluorobenzyl)oxy]phenyl}acetyl)amino]indan-2-carboxylic acid]: 214 to 216 °C.

For `CC(C)(C)OC(=O)c1cccc(COc2ccc(CC(=O)NC3(C(=O)O)Cc4ccc(-c5ccc(Cl)cc5)cc4C3)cc2)c1` (centres unmarked) [Example B187, 2-{[(4-{[3-(tert-Butoxycarbonyl)benzyl]oxy}phenyl)acetyl]amino}-5-(4-chlorophenyl)indan-2-carboxylic acid], the melting point lay in the range of 177 to 179 °C.
